Structures can show the parent of a compound that is named as a salt.
Assays:
[1] = tested on: Maximal Electroshock-induced Seizures; assay: Maximal electroshock-induced seizures (MES); assay type: in vivo; conditions: Mus musculus; mice; 50 mA, 60 pulses/sec, 1 sec
Excerpt: Seizures were induced by application of current (50 mA, 60 pulses/sec, 0.8 sec pulse width, 1 sec duration, d.c.) through saline-coated corneal electrodes using a Ugo Basile ECT device (Model 7801). […] A tonic seizure was defined as a hindlimb extension in excess of 90 degrees from the plane of the body.

[2] = target: T1, NMDA receptor subunits 1A/2B (Rattus norvegicus, UniProt P35439+Q00960); assay: Electrophysiological assay at NMDA receptor subunits expressed in Xenopus oocytes, 1A/2B; assay type: cell-based; conditions: Xenopus oocytes; glutamate 100 μm and glycine 1-100 μm; read-out: Subunits IC50, 1A/2B
T1 construct: expressed in transfected cells; host or cells: Xenopus laevis oocytes (cRNA injection; clones from Dr. P. H. Seeburg)
Procedure, shortened: (§1)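 Two-electrode voltage clamp of Xenopus oocytes injected with rat NR1A plus NR2A, 2B or 2C cRNA (1:1), recorded 3–21 days post-injection in Ringer's, pH 7.4. Currents evoked by glutamate (100 μm) with glycine (1–100 μm); antagonist applied by bath perfusion at rising concentrations, IC50 from logistic fit or linear regression for incomplete curves.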

[3] = target: T2, NMDA receptor subunits 1A/2C (Rattus norvegicus, UniProt P35439+Q00961); assay: Electrophysiological assay at NMDA receptor subunits expressed in Xenopus oocytes, 1A/2C; assay type: cell-based; conditions: Xenopus oocytes; glutamate 100 μm and glycine 1-100 μm; read-out: Subunits IC50, 1A/2C
T2 construct: expressed in transfected cells; host or cells: Xenopus laevis oocytes (cRNA injection; clones from Dr. P. H. Seeburg)
Procedure, shortened: as §1

[4] = target: T3, NMDA receptor subunits 1A/2A (Rattus norvegicus, UniProt P35439+Q00959); assay: Electrophysiological assay at NMDA receptor subunits expressed in Xenopus oocytes, 1A/2A; assay type: cell-based; conditions: glutamate 100 μm and glycine 1-100 μm
T3 construct: expressed in transfected cells; host or cells: Xenopus laevis oocytes (cRNA injection; clones from Dr. P. H. Seeburg)
Procedure, shortened: as §1

T1 sequence (Q00960 27-1482, other chains not shown): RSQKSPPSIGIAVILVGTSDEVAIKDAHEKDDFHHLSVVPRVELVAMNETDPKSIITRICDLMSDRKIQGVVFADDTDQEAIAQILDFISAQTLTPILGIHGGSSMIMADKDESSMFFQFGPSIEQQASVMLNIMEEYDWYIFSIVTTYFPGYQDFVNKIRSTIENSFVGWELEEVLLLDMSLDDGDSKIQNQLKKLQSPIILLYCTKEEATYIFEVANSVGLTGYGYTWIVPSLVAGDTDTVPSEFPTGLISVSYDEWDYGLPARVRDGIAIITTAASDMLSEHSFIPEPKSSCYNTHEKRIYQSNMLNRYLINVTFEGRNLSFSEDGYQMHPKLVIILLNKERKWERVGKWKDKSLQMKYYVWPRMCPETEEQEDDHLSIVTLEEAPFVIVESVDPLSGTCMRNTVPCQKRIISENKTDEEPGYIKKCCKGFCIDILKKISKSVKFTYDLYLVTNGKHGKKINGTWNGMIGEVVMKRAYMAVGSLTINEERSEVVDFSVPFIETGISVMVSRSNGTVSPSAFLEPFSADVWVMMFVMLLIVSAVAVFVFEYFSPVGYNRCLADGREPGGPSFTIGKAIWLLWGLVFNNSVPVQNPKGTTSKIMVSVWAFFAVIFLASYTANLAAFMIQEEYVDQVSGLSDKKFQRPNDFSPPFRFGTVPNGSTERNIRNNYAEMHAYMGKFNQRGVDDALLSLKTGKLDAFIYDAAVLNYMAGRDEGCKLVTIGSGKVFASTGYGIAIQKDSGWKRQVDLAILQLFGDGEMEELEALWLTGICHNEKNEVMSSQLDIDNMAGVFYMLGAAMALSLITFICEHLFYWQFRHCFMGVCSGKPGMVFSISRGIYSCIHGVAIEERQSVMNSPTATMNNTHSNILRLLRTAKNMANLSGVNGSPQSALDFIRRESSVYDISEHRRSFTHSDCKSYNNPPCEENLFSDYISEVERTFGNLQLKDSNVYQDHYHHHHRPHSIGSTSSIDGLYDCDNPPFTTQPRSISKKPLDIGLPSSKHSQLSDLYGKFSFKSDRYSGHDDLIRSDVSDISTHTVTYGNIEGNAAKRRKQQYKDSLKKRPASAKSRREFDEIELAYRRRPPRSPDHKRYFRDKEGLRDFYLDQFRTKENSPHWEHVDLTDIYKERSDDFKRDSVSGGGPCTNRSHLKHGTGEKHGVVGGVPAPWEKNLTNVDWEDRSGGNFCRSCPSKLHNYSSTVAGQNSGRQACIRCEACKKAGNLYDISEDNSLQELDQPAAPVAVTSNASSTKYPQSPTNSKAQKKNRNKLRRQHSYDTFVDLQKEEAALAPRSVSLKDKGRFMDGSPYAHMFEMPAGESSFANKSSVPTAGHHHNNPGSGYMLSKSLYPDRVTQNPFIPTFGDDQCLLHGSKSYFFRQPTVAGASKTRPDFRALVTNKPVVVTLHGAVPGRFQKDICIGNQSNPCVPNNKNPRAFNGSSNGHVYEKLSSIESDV
T2 sequence (Q00961 20-1237, other chains not shown): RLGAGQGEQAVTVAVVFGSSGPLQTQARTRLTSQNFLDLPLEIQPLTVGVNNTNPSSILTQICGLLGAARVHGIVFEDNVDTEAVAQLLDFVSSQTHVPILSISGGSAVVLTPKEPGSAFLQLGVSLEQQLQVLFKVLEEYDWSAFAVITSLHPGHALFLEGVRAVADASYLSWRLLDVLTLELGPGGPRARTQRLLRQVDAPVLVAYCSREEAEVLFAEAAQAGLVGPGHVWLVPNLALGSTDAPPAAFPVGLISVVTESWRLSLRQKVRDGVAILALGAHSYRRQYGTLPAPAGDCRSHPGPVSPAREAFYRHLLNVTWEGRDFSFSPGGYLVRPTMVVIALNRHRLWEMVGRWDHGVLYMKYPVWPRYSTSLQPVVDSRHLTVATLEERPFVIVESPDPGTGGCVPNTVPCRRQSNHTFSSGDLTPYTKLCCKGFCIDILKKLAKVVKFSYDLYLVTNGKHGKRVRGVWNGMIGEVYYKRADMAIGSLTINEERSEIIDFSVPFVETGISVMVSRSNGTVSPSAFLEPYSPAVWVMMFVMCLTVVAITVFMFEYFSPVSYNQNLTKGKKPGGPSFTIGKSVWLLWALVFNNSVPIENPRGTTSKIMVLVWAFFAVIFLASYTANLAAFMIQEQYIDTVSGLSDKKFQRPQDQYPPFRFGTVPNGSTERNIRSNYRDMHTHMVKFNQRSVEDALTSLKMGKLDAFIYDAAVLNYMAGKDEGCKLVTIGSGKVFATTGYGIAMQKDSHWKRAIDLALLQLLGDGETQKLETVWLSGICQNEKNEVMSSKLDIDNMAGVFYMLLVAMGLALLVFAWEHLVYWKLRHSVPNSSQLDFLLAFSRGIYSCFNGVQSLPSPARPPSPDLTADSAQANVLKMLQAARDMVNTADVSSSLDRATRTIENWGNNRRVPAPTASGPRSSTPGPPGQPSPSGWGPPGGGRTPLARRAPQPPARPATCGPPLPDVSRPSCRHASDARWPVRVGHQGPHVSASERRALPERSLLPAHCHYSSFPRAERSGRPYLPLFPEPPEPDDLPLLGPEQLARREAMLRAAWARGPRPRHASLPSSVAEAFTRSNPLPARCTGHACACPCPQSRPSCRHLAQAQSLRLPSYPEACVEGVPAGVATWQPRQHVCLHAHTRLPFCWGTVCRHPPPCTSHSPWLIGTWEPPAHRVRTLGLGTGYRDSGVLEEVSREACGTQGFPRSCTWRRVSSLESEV
T3 sequence (Q00959 20-1464 limits assumed, other chains not shown): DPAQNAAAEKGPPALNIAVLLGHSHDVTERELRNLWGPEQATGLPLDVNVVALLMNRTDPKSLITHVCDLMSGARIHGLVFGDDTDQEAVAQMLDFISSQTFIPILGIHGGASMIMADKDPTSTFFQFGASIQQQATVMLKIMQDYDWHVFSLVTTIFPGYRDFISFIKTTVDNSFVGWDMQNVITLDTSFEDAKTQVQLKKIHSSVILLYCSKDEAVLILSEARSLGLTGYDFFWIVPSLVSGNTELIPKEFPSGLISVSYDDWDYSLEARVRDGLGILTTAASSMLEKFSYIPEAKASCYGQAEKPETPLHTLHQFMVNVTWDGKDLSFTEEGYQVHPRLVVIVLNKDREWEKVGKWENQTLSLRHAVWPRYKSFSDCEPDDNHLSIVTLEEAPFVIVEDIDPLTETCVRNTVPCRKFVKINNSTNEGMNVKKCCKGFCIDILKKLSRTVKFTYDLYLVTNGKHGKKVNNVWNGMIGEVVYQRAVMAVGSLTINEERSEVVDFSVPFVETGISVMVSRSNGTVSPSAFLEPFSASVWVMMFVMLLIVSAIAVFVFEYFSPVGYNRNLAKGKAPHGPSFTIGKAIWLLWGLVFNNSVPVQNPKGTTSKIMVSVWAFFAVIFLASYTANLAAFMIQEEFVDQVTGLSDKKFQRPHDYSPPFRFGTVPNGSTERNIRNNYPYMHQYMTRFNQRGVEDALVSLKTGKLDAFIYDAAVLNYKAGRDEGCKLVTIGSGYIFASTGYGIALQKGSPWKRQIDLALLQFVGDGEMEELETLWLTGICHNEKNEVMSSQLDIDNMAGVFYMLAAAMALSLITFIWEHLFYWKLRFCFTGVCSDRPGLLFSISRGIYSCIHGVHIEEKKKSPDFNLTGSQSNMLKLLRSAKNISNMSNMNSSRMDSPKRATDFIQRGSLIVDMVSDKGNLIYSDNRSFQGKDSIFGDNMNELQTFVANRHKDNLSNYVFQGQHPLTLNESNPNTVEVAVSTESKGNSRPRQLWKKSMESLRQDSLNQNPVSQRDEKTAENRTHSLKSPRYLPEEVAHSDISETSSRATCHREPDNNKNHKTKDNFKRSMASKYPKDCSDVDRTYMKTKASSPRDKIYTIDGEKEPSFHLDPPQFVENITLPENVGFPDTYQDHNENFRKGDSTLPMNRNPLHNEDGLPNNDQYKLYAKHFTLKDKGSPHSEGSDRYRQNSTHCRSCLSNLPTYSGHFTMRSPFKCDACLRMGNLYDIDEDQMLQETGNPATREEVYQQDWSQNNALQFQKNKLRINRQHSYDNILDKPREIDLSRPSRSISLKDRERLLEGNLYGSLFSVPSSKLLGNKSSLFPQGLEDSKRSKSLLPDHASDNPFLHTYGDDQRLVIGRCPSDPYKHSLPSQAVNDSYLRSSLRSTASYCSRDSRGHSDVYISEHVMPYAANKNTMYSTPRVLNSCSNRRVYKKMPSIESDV

Row | SMILES | IC50 [2] [µM] | IC50 [3] [µM] | IC50 [4] [µM] | ED50 [1] [mg/kg]
1 | COc1ccc(CC2CCN(CCOc3ccc(O)cc3)CC2)cc1 [Ex. 121, 1-[2-(4-Hydroxyphenoxy)ethyl]-4-(4-methoxybenzyl)piperidine hydrochloride] | 0.05 | > 300 | 110 | 2.5
2 | Oc1ccc(OCCN2CCC(O)(Cc3ccc(F)cc3)CC2)cc1 [Ex. 123, 1-[2-(4-Hydroxyphenoxy)ethyl]-4-(4-fluorobenzyl)-4-hydroxy-piperidine hydrochloride] | 0.07 | > 300 | 50 | 3
3 | Oc1ccc(OCCN2CCC(Cc3ccc(C(F)(F)F)cc3)CC2)cc1 [Ex. 129, 1-[2-(4-Hydroxyphenoxy)ethyl]-4-(4-trifluorobenzyl)piperidine hydrochloride] | 0.05 | 170 | 170 | 2
4 | CC(C)c1ccc(CC2CCN(CCOc3ccc(O)cc3)CC2)cc1 [Ex. 131, 1-[2-(4-Hydroxyphenoxy)ethyl]-4-(4-isopropylbenzyl)piperidine hydrochloride] | 0.05 | > 300 | 50 | 1.5
5 | Cc1ccc(CC2CCN(CCOc3ccc(F)cc3)CC2)c(F)c1 [Ex. 133, 4-(2-Fluoro-4-methylbenzyl)-1-(2-(4-fluorophenoxy)ethyl)piperidine hydrochloride] | 0.21 | 150 | 80 | 2.5
6 | Cc1ccc(CC2CCN(CCOc3ccc(O)cc3)CC2)c(F)c1 [Ex. 134, 4-(2-Fluoro-4-methylbenzyl)-1-(2-(4-hydroxyphenoxy)ethyl)piperidine hydrochloride] | 0.03 | 140 | 60 | 1.5
7 | CN(CCN1CCC(Cc2ccccc2)CC1)c1ccccc1 [Ex. 143, 4-Benzyl-1-((2-(N-methyl-N-phenyl)amino)ethyl)piperidine dihydrochloride] | 0.4 | > 300 | 190 | 0.5
8 | Cl.Oc1ccc(OCCN2CCC(Cc3c(F)cccc3F)CC2)cc1 [Ex. 146, 1-[2-(4-Hydroxyphenoxy)ethyl]-4-(2,6-difluorobenzyl)piperidine hydrochloride] | 0.01 | 160 | 30 | 0.8
9 | Cc1ccc(CC2CCN(CCOc3ccc(O)c(C)c3)CC2)c(F)c1 [Ex. 147, 1-[2-(4-Hydroxy-3-methylphenoxy)ethyl]-4-(2-fluoro-4-methylbenzyl)piperidine hydrochloride] | 0.1 | 210 | 40 | 3
10 | Cc1ccc(CC2CCN(CCOc3ccc(O)c(F)c3)CC2)cc1 [Ex. 151, 1-[2-(4-Hydroxy-3-fluorophenoxy)ethyl]-4-(4-methylbenzyl)piperidine hydrochloride] | 0.02 | 100 | 52 | 2.5
11 | COc1ccc(C2CCN(CCCCc3ccccc3)CC2)cc1 [Ex. 166, 4-(4-Methoxyphenyl)-1-(4-phenylbutyl)piperidine] | 170 | > 300 | 270 | 0.7
12 | Oc1ccc(C2CCN(CCCCc3ccccc3)CC2)cc1 [Ex. 167, 4-(4-Hydroxyphenyl)-1-(4-phenylbutyl)piperidine] | 0.02 | 301 | 110 | 0.3
13 | Cc1ccc(CC2CCN(CCOc3ccc(Cl)cc3)CC2)cc1.Cl [Ex. 168, 1-(2-(4-Chlorophenoxy)ethyl)-4-(4-methylbenzyl)piperidine hydrochloride] | 9.5 | > 300 | > 300 | 4
14 | O=c1[nH]c2ccc(OCCCN3CCC(Cc4ccccc4)CC3)cc2[nH]1 [Ex. 170, 4-Benzyl-1-[3-(2-oxobenzimidazol-5-oxy)propyl]piperidine] | 0.04 | 230 | 62 | 10
15 | S=c1[nH]c2ccc(OCCN3CCC(Cc4ccc(Cl)cc4)CC3)cc2[nH]1 [Ex. 176, 4-(4-Chlorobenzyl)-1-(2-(2-thioxobenzimidazol-5-oxy)ethyl)piperidine] | 0.03 | 50 | 25 | 7.5
16 | O=c1[nH]c2ccc(OCCN3CC=C(Cc4ccccc4)CC3)cc2[nH]1 [Ex. 177, 4-Benzyl-1-(2-(2-oxobenzimidazol-5-oxy)ethyl)-1,2,5,6-tetrahydropyridine] | 0.1 | 210 | 35 | 5
17 | O=c1[nH]c2ccc(OCCN3CCC(Cc4ccccc4)CC3)cc2o1 [Ex. 182, 4-Benzyl-1-(2-(2-oxobenzoxazol-6-oxy)ethyl)piperidine] | 1 | 210 | 43 | > 20
18 | Oc1ccc2cc(OCCN3CCC(Cc4ccccc4)CC3)ccc2c1 [Ex. 189, 4-Benzyl-1-(2-(2-hydroxynaphth-6-oxy)ethyl)piperidine] | 0.1 | 130 | 7 | 7
19 | O=C1Cc2cc(OCCN3CCC(Cc4ccccc4)CC3)ccc2N1 [Ex. 194, 4-Benzyl-1-(2-(2-oxo-1,3-dihydroindol-5-oxy)ethyl)piperidine] | 0.06 | > 300 | > 300 | 2.5

Continued, in another order:

Row | IC50 [2] [µM] | IC50 [3] [µM] | IC50 [4] [µM] | SMILES | ED50 [1] [mg/kg]
20 | 0.18 | 280 | 55 | Oc1ccc(OCCN2CCC(Cc3ccc(F)c(F)c3)CC2)cc1 [Ex. 122, 1-[2-(4-Hydroxyphenoxy)ethyl]-4-(3,4-difluorobenzyl)piperidine hydrochloride] | 5
21 | 3.3 | > 300 | 75 | Cl.Cl.Oc1ccc(OCCN2CCC(Cc3ccccn3)CC2)cc1 [Ex. 125, 1-(2-(4-Hydroxyphenoxy)ethyl)-4-(2-picolyl)piperidine dihydrochloride] | 15
22 | 0.04 | > 300 | 110 | Oc1ccc(OCCN2CCC(Cc3ccccc3F)CC2)cc1 [Ex. 128, 1-[2-(4-Hydroxyphenoxy)ethyl]-4-(2-fluorobenzyl)piperidine hydrochloride] | 1
23 | 0.16 | 230 | 23 | CC(C)(C)c1ccc(CC2CCN(CCOc3ccc(O)cc3)CC2)cc1 [Ex. 132, 1-[2-(4-Hydroxyphenoxy)ethyl]-4-(4-t-butylbenzyl)piperidine hydrochloride] | 1
24 | 0.04 | 140 | 50 | Cc1ccc(CC2CCN(CCOc3ccc(O)c(F)c3)CC2)c(F)c1 [Ex. 149, 1-[2-(4-Hydroxy-3-fluorophenoxy)ethyl]-4-(2-fluoro-4-methylbenzyl)piperidine hydrochloride] | 2
25 | 0.02 | 230 | 250 | Cc1ccc(CC2(O)CCN(CCOc3ccc(O)cc3)CC2)cc1.Cl [Ex. 154, 1-[2-(4-Hydroxyphenoxy)ethyl]-4-hydroxy-4-(4-methylbenzyl)piperidine hydrochloride] | 1.5
26 | 0.05 | 301 | 65 | Cl.Oc1ccc(SCCN2CCC(Cc3ccc(F)cc3)CC2)cc1 [Ex. 165, 4-(4-Fluorobenzyl)-1-(2-(4-hydroxythiophenoxy)ethyl)piperidine hydrochloride] | 0.5
27 | 0.04 | 170 | 72 | S=c1[nH]c2ccc(OCCN3CCC(Cc4ccccc4)CC3)cc2[nH]1 [Ex. 171, 4-Benzyl-1-(2-(2-thioxobenzimidazol-5-oxy)ethyl)piperidine] | 5
28 | 0.03 | 45 | 35 | Cc1ccc(CC2CCN(CCOc3ccc4[nH]c(=S)[nH]c4c3)CC2)cc1 [Ex. 174, 4-(4-Methylbenzyl)-1-(2-(2-thioxobenzimidazol-5-oxy)ethyl)piperidine] | 5
29 | 0.02 | 70 | 48 | Fc1ccc(CC2CCN(CCOc3ccc4[nH]c(=S)[nH]c4c3)CC2)cc1 [Ex. 175, 4-(4-Fluorobenzyl)-1-(2-(2-thioxobenzimidazol-5-oxy)ethyl)piperidine] | 8
30 | 1 | 140 | 110 | O=c1[nH]c2cc(OCCN3CCC(Cc4ccccc4)CC3)ccc2o1 [Ex. 181, 4-Benzyl-1-(2-(2-oxobenzoxazol-5-oxy)ethyl)piperidine] | 6

— patent publication US6124323A, “4-substituted piperidine analogs and their use as subtype selective NMDA receptor antagonists” (Warner-Lambert Company, priority 1998, dated 2000)
